Measured values taken from patent publication US20230096663A1, “FARNESOID X RECEPTOR MODULATING COMPOUNDS AND METHODS OF USING THE SAME” (Inorbit Therapeutics AB, priority 2020, published 2023).
pEC50: −log10 of the molar value.

Tests used:
[1] = Metabolic identification in mouse hepatocytes; assay type: in vitro ADME; conditions: up to 120 min
Protocol: (§1) A 10 mM stock of test compound from Example 2 (sodium 2-(3-((5-cyclopropyl-3-(2-(trifluoromethoxy)phenyl)isoxazol-4-yl)methoxy)-8-azabicyclo[3.2.1]octan-8-yl)-4-fluorobenzo[d]thiazole-6-sulfinate) was prepared in DMSO. 20 μM of final working stock was then prepared by diluting 4 μL of 10 mM stock in 1996 μL of Krebs-Hensleit buffer. 200 μL of hepatocyte cell suspension (2×10^6 cells/mL) was added to TPP 48 well plate and preincubated for 30 min @ 37° C. in incubator. 200 μL of 20 μM working stock of test compound was added to the cell suspension and incubated in an incubator on vibramax at a shaking speed of 500 rpm. For the 0 min sample, 25 μL of hepatocyte suspension was precipitated with 200 μL of acetonitrile and 25 μL of 20 μM test compound was added. The reaction was stopped at 15, 30, 60, 90, 120 min by precipitating 50 μL of incubation mixture with 200 μL of acetonitrile. The samples were vortexed for 5 min at 1200 rpm and centrifuged at 4000 rpm for 10 min. The supernatant was separated, diluted 2 fold with water and analysed using a HPLC (Shimadzu SIL HTS) and mass spectrometer (5500 Qtrap). Acetonitrile and 0.1% formic acid in Milli-q-water were used as the mobile phase, using a column of either Waters Xbridge C18, 250×3.0 mm, 5.0μ particle size or Phenomnex kinetex 5μ EVO C18 100 A, 50×4.6 mm 5.0μ particle size. […]

[2] = biological target: T1, Human FXR receptor (NR1H4) (Homo sapiens, UniProt Q96RI1); assay: Human Farnesoid X Receptor (NR1H4, FXR) reporter assay; assay type: cell-based
T1 sequence (Q96RI1 1-486): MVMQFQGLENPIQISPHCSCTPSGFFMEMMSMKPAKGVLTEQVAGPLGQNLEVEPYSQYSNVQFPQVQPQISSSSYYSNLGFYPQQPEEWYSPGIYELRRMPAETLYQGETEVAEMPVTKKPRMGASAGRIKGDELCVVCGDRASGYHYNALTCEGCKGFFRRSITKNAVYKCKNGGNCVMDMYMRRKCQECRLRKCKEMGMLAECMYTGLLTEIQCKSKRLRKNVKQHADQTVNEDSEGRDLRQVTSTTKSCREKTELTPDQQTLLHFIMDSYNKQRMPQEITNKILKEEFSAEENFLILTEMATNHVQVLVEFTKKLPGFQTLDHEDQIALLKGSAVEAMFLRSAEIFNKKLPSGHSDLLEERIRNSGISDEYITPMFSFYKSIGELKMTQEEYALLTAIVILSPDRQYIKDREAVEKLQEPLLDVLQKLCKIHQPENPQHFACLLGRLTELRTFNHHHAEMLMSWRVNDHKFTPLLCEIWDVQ
Description: Determination of a ligand mediated Gal4 promoter driven transactivation to quantify ligand binding mediated activation of FXR. A FXR Reporter Assay kit was purchased from Indigo Bioscience (#IB00601-32) to determine the potency and efficacy of compounds that can induce FXR activation. The nuclear receptor assay system utilizes non-human mammalian cells engineered to provide constitutive high level expression of Human FXR receptor (NR1H4), a ligand-dependent transcription factor. The reporter cells include luciferase reporter gene functionality linked to an FXR-response promoter. Quantifying changes in luciferase expression in the treated reporter cells provides a sensitive surrogate measure of the changes in FXR activity. […] Luminescence intensity of the reaction is quantified using a luminometer, and is reported in terms of Relative Light Units (RLU's). […] After incubation, the media was carefully removed, Luciferase detection solution was added and the plate read in a Luminometer. The data was calculated as per kit instructions, with increases in luminescence being directly proportional to increases in compound agonist activity.

[3] = Metabolic identification in human hepatocytes; assay type: in vitro ADME
Protocol: A 10 mM stock of test compound from Example 2 (sodium 2-(3-((5-cyclopropyl-3-(2-(trifluoromethoxy)phenyl)isoxazol-4-yl)methoxy)-8-azabicyclo[3.2.1]octan-8-yl)-4-fluorobenzo[d]thiazole-6-sulfinate) was prepared in DMSO. 20 μM of final working stock was then prepared by diluting 4 μL of 10 mM stock in 1996 μL of Krebs-Hensleit buffer. 200 μL of hepatocyte cell suspension (2×10^6 cells/mL) was added to TPP 48 well plate and preincubated for 30 min @ 37° C. in incubator. 200 μL of 20 μM working stock of test compound was added to the cell suspension and incubated in an incubator on vibramax at a shaking speed of 500 rpm. For the 0 min sample, 25 μL of hepatocyte suspension was precipitated with 200 μL of acetonitrile and 25 μL of 20 μM test compound was added. The reaction was stopped at 15, 30, 60, 90, 120 min by precipitating 50 μL of incubation mixture with 200 μL of acetonitrile. The samples were vortexed for 5 min at 1200 rpm and centrifuged at 4000 rpm for 10 min. The supernatant was separated, diluted 2 fold with water and analysed using a HPLC (Shimadzu SIL HTS) and mass spectrometer (5500 Qtrap). Acetonitrile and 0.1% formic acid in Milli-q-water were used as the mobile phase, using a column of either Waters Xbridge C18, 250×3.0 mm, 5.0μ particle size or Phenomnex kinetex 5μ EVO C18 100 A, 50×4.6 mm 5.0μ particle size.
Table 4 summarizes the major metabolites observed when the compound of Example 2 of the invention was incubated in human, dog or mouse hepatocytes.

[4] = Metabolism in human microsomes; assay type: in vitro ADME; conditions: 37° C.
Protocol: Microsomal mixes (247.5 μL) of human microsomes (1250 μL, 4 mg/ml), potassium phosphate buffer (1250 μL), alamethecin (12.5 μL, 5 mg/ml) and cofactors Nicotinamide Adenine Dinucleotide Phosphate NADPH (1250 μL, 4 mM)/uridine 5′-diphospho-glucuronic acid UDPGA (1250 μL, 4 mM) or UDPGA only were loaded onto a shaker for 10 minutes. The test compound (2.5 μL, 100 μM) was then separately added to both microsomal mixes (i.e., one mix with NADPH and one mix without NADPH), incubated at 37° C. and sampled at predetermined time points. Analysis was performed using a AB SCIEX QTRAP 4500 LC-MS/MS, a Kinetex C18, 50*4.6 mm, 5 μm column and eluting with 10 mM Ammonium Acetate/Methanol.
Table 3 summarizes the % of compound remaining after 45 minutes of incubation with human microsomes either in the presence of co-factors UDPGA and NADPH or UDPGA only.

[5] = Metabolic identification in dog hepatocytes; assay type: in vitro ADME; conditions: up to 120 min
Protocol: as §1

Compound: O=S([O-])c1cc(F)c2nc(N3[C@@H]4CC[C@H]3C[C@@H](OCc3c(-c5ccccc5OC(F)(F)F)noc3C3CC3)C4)sc2c1.[Na+] [Example 2, Sodium 2-(3-((5-cyclopropyl-3-(2-(trifluoromethoxy)phenyl)isoxazol-4-yl)methoxy)-8-azabicyclo[3.2.1]octan-8-yl)-4-fluorobenzo[d]thiazole-6-sulfinate]
- Acyl-Glucuronide [1]: No
- Observed Major Metabolites [1]: Hydroxy, Di-hydroxy and Alkenyl-hydroxy
- pEC50 ([2]; Human FXR (NR1H4) luciferase reporter assay, 22-24 h): 6.34
- Efficacy ([2]; normalized to GW4064 set as 100%): 119%
- Major metabolite by MS/MS (FIG. 14) ([3]; 120 mins): hydroxy compound
- Acyl-Glucuronide ([3]; up to 120 min): No
- Observed Major Metabolites ([3]; up to 120 min): Hydroxy, Alkenyl and Alkenyl-hydroxy
- % remaining @ 45 mins of incubation with UDPGA ([4]; co-factor UDPGA only): 94%
- % remaining @ 45 mins of incubation with UDPGA and NADPH ([4]; co-factors UDPGA and NADPH): 52%
- Acyl-Glucuronide [5]: No
